From US4416884A, “Piperazinylbenzoheterocyclic compounds” (Otsuka Pharmaceutical Co., Ltd., priority 1978, dated 1983) come the findings set out here.

What all share (test): antimicrobial activity, serial dilution method on agar plate
Holding throughout (type): cell-based

The test system of test [1] is Staphylococcus aureus FDA 209 P. On the procedure: (§1) The antimicrobial activity of the following test compounds on various test organisms listed below was determined by the serial dilution method on agar plate (Heart Infusion agar produced by Difco Co.) (see CHEMOTHERAPY 22, pp. 1126-1128 (1974)), and the minimum inhibitory concentrations (mcg/ml) obtained are shown in Table 1 below.
(§2) A sample of each test organism was prepared so that the population of the organism was 1×10^8 cells/ml (O.D. 660 mμ=0.07 to 0.16) and 1×10^6 cells/ml (which was obtained by diluting the above 1×10^8 cells/ml preparation).

Test [2] concerns Klebsiella pneumoniae. Here is the method: as §1, §2
Test [3] has as its system Pseudomonas aeruginosa E-2. Here is the method: as §1, §2
For test [4], the system named is Pseudomonas aeruginosa NCTC 10490. Here is the method:
as §1, §2

In test [5] the test system is Pseudomonas aeruginosa ATCC 10145. On the procedure: as §1, §2
For test [6], the system named is Escherichia Coli NIHJ JC-2 (IFO 12734). The conditions noted are these: for MIC: Escherichia coli, read-out: Minimum Inhibitory Concentration. On the procedure:
as §1, §2

In test [7] the test system is Shigella Sonnei EW 33. The conditions noted are these: read-out: Minimum Inhibitory Concentration. Here is the method:
as §1, §2

The subject of test [8] is Proteus rettgeri NIH 96. The conditions noted are these: Providencia rettgeri. On the procedure:
as §1, §2

Test [9] concerns Serattia marcescens IFO 12648. Here is the method: as §1, §2
For test [10], the system named is Salmonella typhi 0-901 (NCTC 8393). Conditions: Salmonella enterica. Here is the method: as §1, §2
Test [11] relates to Streptococcus pyogenes IID S-23. On the procedure:
as §1, §2

Where [12] appears, read: FDA209, inoculum 1 × 10^8 cells/ml, read-out: Minimum Inhibitory Concentration.
Where [13] appears, read: inoculum 1 × 10^8 cells/ml, read-out: Minimum Inhibitory Concentration.
Setting [14] is: E2, inoculum 1 × 10^8 cells/ml, read-out: Minimum Inhibitory Concentration.
[15] abbreviates: NCTC10490, inoculum 1 × 10^8 cells/ml, read-out: Minimum Inhibitory Concentration.
The mark [16] stands for this setting: ATCC10145, inoculum 1 × 10^8 cells/ml, read-out: Minimum Inhibitory Concentration.
Where [17] appears, read: NIH96, inoculum 1 × 10^8 cells/ml, read-out: Minimum Inhibitory Concentration.
Where [18] appears, read: read-out: Minimum Inhibitory Concentration, inoculum 1 × 10^8 cells/ml.
[19] abbreviates: FDA209, read-out: Minimum Inhibitory Concentration, inoculum 1 × 10^8 cells/ml.
The mark [20] stands for this setting: E2, read-out: Minimum Inhibitory Concentration, inoculum 1 × 10^8 cells/ml.
Where [21] appears, read: NCTC10490, read-out: Minimum Inhibitory Concentration, inoculum 1 × 10^8 cells/ml.
Setting [22] is: ATCC10145, read-out: Minimum Inhibitory Concentration, inoculum 1 × 10^8 cells/ml.
Setting [23] is: NIH96, read-out: Minimum Inhibitory Concentration, inoculum 1 × 10^8 cells/ml.
[24] abbreviates: read-out: Minimum Inhibitory Concentration, inoculum 1 × 10^6 cells/ml.

In brackets after ≈: the same amount, converted by molar mass. Counter-ions that a name gives are not always drawn. Like-named read-outs stand apart in the source and are kept apart here.

For the compound `CN1CCN(c2ccc3c(=O)c(C(=O)O)cn4c3c2CCC4)CC1` [Compound L, 8-(4-Methyl-1-piperazinyl)-6,7-dihydro-1-oxo-1H,5H--benzo[ij]quinolizine-2-carboxylic acid], the MIC is 6.3 µg/mL (≈ 19.2 µM) in test [1] (setting [12]); 6.3 µg/mL (≈ 19.2 µM) in test [2] (setting [13]); 50 µg/mL (≈ 153 µM) in test [3] (setting [14]); 50 µg/mL (≈ 153 µM) in test [4] (setting [15]); 50 µg/mL (≈ 153 µM) in [5] (setting [16]); 1.6 µg/mL (≈ 4.89 µM) in test [6] (inoculum 1 × 10^8 cells/ml). Also, the MIC in test [7] (inoculum 1 × 10^8 cells/ml) came to 3.1 µg/mL (≈ 9.47 µM); in test [8] (setting [17]) it was 3.1 µg/mL (≈ 9.47 µM); in test [9] (setting [13]) it was 6.3 µg/mL (≈ 19.2 µM); in test [10] (setting [18]) it was 3.1 µg/mL (≈ 9.47 µM).
Take `O=CN1CCN(c2ccc3c(=O)c(C(=O)O)cn4c3c2CCC4)CC1` [Compound M, 8-(4-Formyl-1-piperazinyl)-6,7-dihydro-1-oxo-1H,5H--benzo[ij]quinolizine-2-carboxylic acid]: the MIC was 3.1 µg/mL (≈ 9.08 µM) in [1] (setting [12]); 3.1 µg/mL (≈ 9.08 µM) in test [2] (setting [13]); 25 µg/mL (≈ 73.2 µM) in test [3] (setting [14]); 12.5 µg/mL (≈ 36.6 µM) in test [4] (setting [15]); 25 µg/mL (≈ 73.2 µM) in [5] (setting [16]); 1.6 µg/mL (≈ 4.69 µM) in test [6] (inoculum 1 × 10^8 cells/ml). Also, the MIC came to 1.6 µg/mL (≈ 4.69 µM) in test [7] (inoculum 1 × 10^8 cells/ml), 1.6 µg/mL (≈ 4.69 µM) in test [8] (setting [17]), 3.1 µg/mL (≈ 9.08 µM) in test [9] (setting [13]) and 0.8 µg/mL (≈ 2.34 µM) in test [10] (setting [18]).
Take `O=C(O)c1cn2c3c(c(N4CCN(C(=O)c5ccccc5)CC4)ccc3c1=O)CCC2` [Compound N, 8-(4-Benzoyl-1-piperazinyl)-6,7-dihydro-1-oxo-1H,5H--benzo[ij]quinolizine-2-carboxylic acid]: the MIC in test [1] (setting [12]) was 3.1 µg/mL (≈ 7.43 µM); in test [2] (setting [13]), 6.3 µg/mL (≈ 15.1 µM); in test [3] (setting [14]), 100 µg/mL (≈ 240 µM); in [4] (setting [15]), 25 µg/mL (≈ 59.9 µM); in test [5] (setting [16]) it was 50 µg/mL (≈ 120 µM); in [6] (inoculum 1 × 10^8 cells/ml), 6.3 µg/mL (≈ 15.1 µM). Further, the MIC was determined as 3.1 µg/mL (≈ 7.43 µM) in test [7] (inoculum 1 × 10^8 cells/ml), 6.3 µg/mL (≈ 15.1 µM) in test [8] (setting [17]), 12.5 µg/mL (≈ 29.9 µM) in test [9] (setting [13]) and 1.6 µg/mL (≈ 3.83 µM) in [10] (setting [18]).
As to `CS(=O)(=O)N1CCN(c2ccc3c(=O)c(C(=O)O)cn4c3c2CCC4)CC1` [Compound O, 8-(4-Methanesulfonyl-1-piperazinyl)-6,7-dihydro-1-oxo-1H,5H--benzo[ij]quinolizine-2-carboxylic acid], the MIC in test [1] (setting [12]) came to 3.1 µg/mL (≈ 7.92 µM); in [2] (setting [13]) it was 6.3 µg/mL (≈ 16.1 µM); in test [3] (setting [14]), 100 µg/mL (≈ 255 µM); in test [4] (setting [15]) it was 25 µg/mL (≈ 63.9 µM); in [5] (setting [16]) it was 100 µg/mL (≈ 255 µM); in test [6] (inoculum 1 × 10^8 cells/ml), 6.3 µg/mL (≈ 16.1 µM). For the same compound, the MIC in test [7] (inoculum 1 × 10^8 cells/ml) was 6.3 µg/mL (≈ 16.1 µM); in test [8] (setting [17]) it was 6.3 µg/mL (≈ 16.1 µM); in test [9] (setting [13]), 12.5 µg/mL (≈ 31.9 µM); in test [10] (setting [18]), 1.6 µg/mL (≈ 4.09 µM).
In the case of `O=C(O)c1cn2c3c(c(N4CCNCC4)c(Cl)cc3c1=O)CCC2` [Compound P, 9-Chloro-8-(1-piperazinyl)-6,7-dihydro-1-oxo-1H,5H--benzo[ij]quinolizine-2-carboxylic acid hydrochloride], the MIC is 6.3 µg/mL in test [1] (setting [19]); 0.8 µg/mL in test [2] (setting [18]); 6.3 µg/mL in test [3] (setting [20]); 6.3 µg/mL in [4] (setting [21]); 6.3 µg/mL in test [5] (setting [22]); 1.6 µg/mL in [6]. Further, the MIC in [7] (inoculum 1 × 10^8 cells/ml) was determined as 1.6 µg/mL; in [8] (setting [23]) it was 0.4 µg/mL; in test [9] (setting [18]) it was 1.6 µg/mL; in test [10] (setting [13]), 0.8 µg/mL.
As to `O=C(O)c1cn2c3c(c(N4CCNCC4)ccc3c1=O)CC2` [Compound Q, 9-(1-Piperazinyl)-6-oxo-1,2-dihydro-6H--pyrrolo[3,2,1-ij]quinoline-5-carboxylic acid hydrochloride], the MIC in [1] (setting [19]) was 100 µg/mL; in [2] (setting [18]), 12.5 µg/mL; in [3] (setting [20]) it was 50 µg/mL; in test [4] (setting [21]), 25 µg/mL; in test [5] (setting [22]), 50 µg/mL; in test [6], 25 µg/mL. The MIC in [7] (inoculum 1 × 10^8 cells/ml) was 3.1 µg/mL; in test [8] (setting [23]), 25 µg/mL; in [9] (setting [18]), 6.3 µg/mL; in test [10] (setting [13]) it was 6.3 µg/mL.
On to `O=C(O)c1cn2c3c(c(N4CCN(Cc5ccccc5)CC4)ccc3c1=O)CCC2` [Compound R, 8-(4-Benzyl-1-piperazinyl)-6,7-dihydro-1-oxo-1H,5H--benzo[ij]quinolizine-2-carboxylic acid], for which the MIC in test [1] (setting [12]) came out at 12.5 µg/mL (≈ 31 µM); in test [2] (setting [13]), 3.1 µg/mL (≈ 7.68 µM); in [3] (setting [14]), 25 µg/mL (≈ 62 µM); in test [4] (setting [15]), 12.5 µg/mL (≈ 31 µM); in test [5] (setting [16]) it was 25 µg/mL (≈ 62 µM); in [6] (inoculum 1 × 10^8 cells/ml), 1.6 µg/mL (≈ 3.97 µM). Also, the MIC is 1.6 µg/mL (≈ 3.97 µM) in test [7] (inoculum 1 × 10^8 cells/ml), 1.6 µg/mL (≈ 3.97 µM) in test [8] (setting [17]), 3.1 µg/mL (≈ 7.68 µM) in test [9] (setting [13]) and 1.6 µg/mL (≈ 3.97 µM) in test [10] (setting [18]).
In the case of `Cc1ccc(S(=O)(=O)N2CCN(c3ccc4c(=O)c(C(=O)O)cn5c4c3CCC5)CC2)cc1` [Compound S, 8-(4-p-Toluenesulfonyl-1-piperazinyl)-6,7-dihydro-1-oxo-1H,5H--benzo[ij]quinolizine-2-carboxylic acid], the MIC in [1] (setting [12]) turned out to be 6.3 µg/mL (≈ 13.5 µM); in test [2] (setting [13]), 3.1 µg/mL (≈ 6.63 µM); in test [3] (setting [14]) it was 50 µg/mL (≈ 107 µM); in test [4] (setting [15]) it was 12.5 µg/mL (≈ 26.7 µM); in [5] (setting [16]), 25 µg/mL (≈ 53.5 µM); in [6] (inoculum 1 × 10^8 cells/ml) it was 1.6 µg/mL (≈ 3.42 µM). Also, the MIC in test [7] (inoculum 1 × 10^8 cells/ml) came to 3.1 µg/mL (≈ 6.63 µM); in test [8] (setting [17]), 3.1 µg/mL (≈ 6.63 µM); in test [9] (setting [13]), 6.3 µg/mL (≈ 13.5 µM); in test [10] (setting [18]), 1.6 µg/mL (≈ 3.42 µM).
As to `CC1CCc2c(N3CCNCC3)c(Cl)cc3c(=O)c(C(=O)O)cn1c23` (stereo not drawn) [Compound T, 8-(1-Piperazinyl)-9-chloro-5-methyl-6,7-dihydro-1-oxo-1H,5H--benzo[ij]quinolizine-2-carboxylic acid hydrochloride hydrate], the MIC in test [1] (FDA209, read-out: Minimum Inhibitory Concentration, inoculum 1 × 10^6 cells/ml) came out at 1.6 µg/mL; in [1] (setting [19]) it was 1.6 µg/mL; in test [2] (setting [24]), 0.4 µg/mL; in test [2] (setting [18]), 0.4 µg/mL; in test [3] (E2, read-out: Minimum Inhibitory Concentration, inoculum 1 × 10^6 cells/ml), 3.1 µg/mL; in test [3] (setting [20]), 3.1 µg/mL. In addition, the MIC in test [4] (NCTC10490, read-out: Minimum Inhibitory Concentration, inoculum 1 × 10^6 cells/ml) amounted to 1.6 µg/mL; in [4] (setting [21]), 1.6 µg/mL; in [5] (ATCC10145, read-out: Minimum Inhibitory Concentration, inoculum 1 × 10^6 cells/ml) it was 1.6 µg/mL; in test [5] (setting [22]) it was 3.1 µg/mL; in test [6] it was 0.4 µg/mL; in test [7] (inoculum 1 × 10^6 cells/ml), 0.2 µg/mL. Besides, the MIC was found to be 0.2 µg/mL in [7] (inoculum 1 × 10^8 cells/ml); 3.1 µg/mL in test [11] (IIDS23, read-out: Minimum Inhibitory Concentration, inoculum 1 × 10^6 cells/ml); 6.3 µg/mL in test [11] (IIDS23, read-out: Minimum Inhibitory Concentration, inoculum 1 × 10^8 cells/ml); 0.2 µg/mL in test [8] (NIH96, read-out: Minimum Inhibitory Concentration, inoculum 1 × 10^6 cells/ml); 0.2 µg/mL in [8] (setting [23]); 1.6 µg/mL in test [9] (setting [24]). Besides, the MIC in test [9] (setting [18]) was 1.6 µg/mL; in [10] (inoculum 1 × 10^6 cells/ml, read-out: Minimum Inhibitory Concentration), 0.1 µg/mL; in test [10] (setting [13]), 0.2 µg/mL. Moreover, in test [6] (inoculum 1 × 10^6 cells/ml), the “Minimum Inhibitory Concentration” value came to 0.4 µg/mL.
